Test results: ChEMBL document CHEMBL4507256 (2021)

Assays:
[1] = target: Serine/threonine-protein kinase TBK1 (Homo sapiens) (UniProt Q9UHD2); conditions: Compound concentration 1000.0 nM
[2] = target: 3-phosphoinositide-dependent protein kinase 1 (Homo sapiens) (UniProt O15530); conditions: Compound concentration 1000.0 nM
[3] = tested on: Epidermal growth factor receptor (Homo sapiens), P00533 [UNDEFINED MUTATION]; conditions: Compound concentration 1000.0 nM
[4] = target: Membrane-associated tyrosine- and threonine-specific cdc2-inhibitory kinase (Homo sapiens) (UniProt Q99640); conditions: Compound concentration 1000.0 nM
[5] = target: Tyrosine-protein kinase Lck (Homo sapiens) (UniProt P06239); conditions: Compound concentration 1000.0 nM
[6] = target: Insulin receptor-related protein (Homo sapiens) (UniProt P14616); conditions: Compound concentration 1000.0 nM
[7] = target: Tyrosine-protein kinase Fgr (Homo sapiens) (UniProt P09769); conditions: Compound concentration 1000.0 nM
[8] = target: Serine/threonine-protein kinase TAO3 (Homo sapiens) (UniProt Q9H2K8); conditions: Compound concentration 1000.0 nM
[9] = target: 5-hydroxytryptamine receptor 1B (Homo sapiens) (UniProt P28222); conditions: Compound concentration 10.0 uM
[10] = target: 5-hydroxytryptamine receptor 1D (Homo sapiens) (UniProt P28221); conditions: Compound concentration 10.0 uM
[11] = target: SNF-related serine/threonine-protein kinase (Homo sapiens) (UniProt Q9NRH2); conditions: Compound concentration 1000.0 nM
[12] = target: Mitogen-activated protein kinase kinase kinase 2 (Homo sapiens) (UniProt Q9Y2U5); conditions: Compound concentration 1000.0 nM
[13] = target: Glycogen synthase kinase-3 beta (Homo sapiens) (UniProt P49841); conditions: Compound concentration 1000.0 nM
[14] = target: Tyrosine-protein kinase Mer (Homo sapiens) (UniProt Q12866); conditions: Compound concentration 1000.0 nM
[15] = target: Cyclin-dependent kinase 4 (Homo sapiens) (UniProt P11802); conditions: Compound concentration 1000.0 nM
[16] = target: 5-hydroxytryptamine receptor 7 (Homo sapiens) (UniProt P34969); conditions: Compound concentration 10.0 uM
[17] = target: Sigma intracellular receptor 2 (Homo sapiens) (UniProt Q5BJF2); conditions: Compound concentration 10.0 uM
[18] = target: Cyclin-dependent kinase 5 (Homo sapiens) (UniProt Q00535); conditions: Compound concentration 1000.0 nM
[19] = target: Sodium-dependent serotonin transporter (Homo sapiens) (UniProt P31645); conditions: Compound concentration 10.0 uM
[20] = target: Serine/threonine-protein kinase PAK 5 (Homo sapiens) (UniProt Q9P286); conditions: Compound concentration 1000.0 nM
[21] = target: Testis-specific serine/threonine-protein kinase 1 (Homo sapiens) (UniProt Q9BXA7); conditions: Compound concentration 1000.0 nM
[22] = target: Serine/threonine-protein kinase/endoribonuclease IRE1 (Homo sapiens) (UniProt O75460); conditions: Compound concentration 1000.0 nM
[23] = target: Receptor tyrosine-protein kinase erbB-3 (Homo sapiens) (UniProt P21860); conditions: Compound concentration 1000.0 nM
[24] = target: MAP kinase-activated protein kinase 2 (Homo sapiens) (UniProt P49137); conditions: Compound concentration 1000.0 nM
[25] = target: TGF-beta receptor type-2 (Homo sapiens) (UniProt P37173); conditions: Compound concentration 1000.0 nM
[26] = target: Ribosomal protein S6 kinase alpha-3 (Homo sapiens) (UniProt P51812); conditions: Compound concentration 1000.0 nM
[27] = tested on: Mast/stem cell growth factor receptor Kit (Homo sapiens), P10721 [D816H]; conditions: Compound concentration 1000.0 nM
[28] = target: Phosphatidylinositol 4-phosphate 5-kinase type-1 alpha (Homo sapiens) (UniProt Q99755); conditions: Compound concentration 1000.0 nM
[29] = tested on: Proto-oncogene tyrosine-protein kinase receptor Ret (Homo sapiens), P07949 [V804L]; conditions: Compound concentration 1000.0 nM
[30] = target: Myosin light chain kinase, smooth muscle (Homo sapiens) (UniProt Q15746); conditions: Compound concentration 1000.0 nM
[31] = target: Dual specificity protein kinase CLK1 (Homo sapiens) (UniProt P49759); conditions: Compound concentration 1000.0 nM
[32] = target: Serine/threonine-protein kinase PknB (Mycobacterium tuberculosis) (UniProt P9WI81); conditions: Compound concentration 1000.0 nM
[33] = tested on: Receptor-type tyrosine-protein kinase FLT3 (Homo sapiens), P36888 [UNDEFINED MUTATION]; conditions: Compound concentration 1000.0 nM
[34] = tested on: Leucine-rich repeat serine/threonine-protein kinase 2 (Homo sapiens), Q5S007 [G2019S]; conditions: Compound concentration 1000.0 nM
[35] = target: MAP kinase-activated protein kinase 5 (Homo sapiens) (UniProt Q8IW41); conditions: Compound concentration 1000.0 nM
[36] = tested on: Receptor-type tyrosine-protein kinase FLT3 (Homo sapiens), P36888 [D835Y]; conditions: Compound concentration 1000.0 nM
[37] = target: Rhodopsin kinase GRK7 (Homo sapiens) (UniProt Q8WTQ7); conditions: Compound concentration 1000.0 nM
[38] = target: Ribosomal protein S6 kinase beta-1 (Homo sapiens) (UniProt P23443); conditions: Compound concentration 1000.0 nM
[39] = target: Mu-type opioid receptor (Homo sapiens) (UniProt P35372); conditions: Compound concentration 10.0 uM
[40] = target: Serine/threonine-protein kinase 38-like (Homo sapiens) (UniProt Q9Y2H1); conditions: Compound concentration 1000.0 nM
[41] = target: Phosphatidylinositol 4,5-bisphosphate 3-kinase catalytic subunit gamma isoform (Homo sapiens) (UniProt P48736); conditions: Compound concentration 1000.0 nM
[42] = target: Epithelial discoidin domain-containing receptor 1 (Homo sapiens) (UniProt Q08345); conditions: Compound concentration 1000.0 nM
[43] = target: Cyclin-dependent kinase-like 5 (Homo sapiens) (UniProt O76039); conditions: Compound concentration 1000.0 nM
[44] = target: Ribosomal protein S6 kinase alpha-6 (Homo sapiens) (UniProt Q9UK32); conditions: Compound concentration 1000.0 nM
[45] = target: Tyrosine-protein kinase Fer (Homo sapiens) (UniProt P16591); conditions: Compound concentration 1000.0 nM

Chain of Epithelial discoidin domain-containing receptor 1 (Homo sapiens) (Q08345 whole entry, the tested form may be a part): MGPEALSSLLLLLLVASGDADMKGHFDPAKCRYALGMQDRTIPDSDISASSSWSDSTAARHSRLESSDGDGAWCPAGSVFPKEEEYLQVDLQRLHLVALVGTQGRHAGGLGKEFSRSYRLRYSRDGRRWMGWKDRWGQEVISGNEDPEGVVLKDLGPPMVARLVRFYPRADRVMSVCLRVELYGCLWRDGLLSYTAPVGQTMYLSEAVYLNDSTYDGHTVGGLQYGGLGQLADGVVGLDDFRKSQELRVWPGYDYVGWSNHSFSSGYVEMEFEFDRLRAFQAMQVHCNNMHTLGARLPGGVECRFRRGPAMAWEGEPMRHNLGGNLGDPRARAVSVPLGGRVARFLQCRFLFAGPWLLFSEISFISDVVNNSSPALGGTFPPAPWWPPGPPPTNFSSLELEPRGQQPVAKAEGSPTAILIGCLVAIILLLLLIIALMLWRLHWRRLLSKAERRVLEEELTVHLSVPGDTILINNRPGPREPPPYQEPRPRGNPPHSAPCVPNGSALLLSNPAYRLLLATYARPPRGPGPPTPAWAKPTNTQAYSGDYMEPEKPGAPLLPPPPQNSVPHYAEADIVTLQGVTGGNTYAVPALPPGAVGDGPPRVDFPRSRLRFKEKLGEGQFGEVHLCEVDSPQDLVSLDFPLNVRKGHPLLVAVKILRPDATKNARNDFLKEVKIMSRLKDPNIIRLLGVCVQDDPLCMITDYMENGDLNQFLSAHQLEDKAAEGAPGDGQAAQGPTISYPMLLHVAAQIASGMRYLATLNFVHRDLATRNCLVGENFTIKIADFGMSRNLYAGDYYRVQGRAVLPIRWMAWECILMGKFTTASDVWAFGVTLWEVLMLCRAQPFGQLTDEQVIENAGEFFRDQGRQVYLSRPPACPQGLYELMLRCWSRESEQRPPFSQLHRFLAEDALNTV
Chain of Receptor tyrosine-protein kinase erbB-3 (Homo sapiens) (P21860 whole entry): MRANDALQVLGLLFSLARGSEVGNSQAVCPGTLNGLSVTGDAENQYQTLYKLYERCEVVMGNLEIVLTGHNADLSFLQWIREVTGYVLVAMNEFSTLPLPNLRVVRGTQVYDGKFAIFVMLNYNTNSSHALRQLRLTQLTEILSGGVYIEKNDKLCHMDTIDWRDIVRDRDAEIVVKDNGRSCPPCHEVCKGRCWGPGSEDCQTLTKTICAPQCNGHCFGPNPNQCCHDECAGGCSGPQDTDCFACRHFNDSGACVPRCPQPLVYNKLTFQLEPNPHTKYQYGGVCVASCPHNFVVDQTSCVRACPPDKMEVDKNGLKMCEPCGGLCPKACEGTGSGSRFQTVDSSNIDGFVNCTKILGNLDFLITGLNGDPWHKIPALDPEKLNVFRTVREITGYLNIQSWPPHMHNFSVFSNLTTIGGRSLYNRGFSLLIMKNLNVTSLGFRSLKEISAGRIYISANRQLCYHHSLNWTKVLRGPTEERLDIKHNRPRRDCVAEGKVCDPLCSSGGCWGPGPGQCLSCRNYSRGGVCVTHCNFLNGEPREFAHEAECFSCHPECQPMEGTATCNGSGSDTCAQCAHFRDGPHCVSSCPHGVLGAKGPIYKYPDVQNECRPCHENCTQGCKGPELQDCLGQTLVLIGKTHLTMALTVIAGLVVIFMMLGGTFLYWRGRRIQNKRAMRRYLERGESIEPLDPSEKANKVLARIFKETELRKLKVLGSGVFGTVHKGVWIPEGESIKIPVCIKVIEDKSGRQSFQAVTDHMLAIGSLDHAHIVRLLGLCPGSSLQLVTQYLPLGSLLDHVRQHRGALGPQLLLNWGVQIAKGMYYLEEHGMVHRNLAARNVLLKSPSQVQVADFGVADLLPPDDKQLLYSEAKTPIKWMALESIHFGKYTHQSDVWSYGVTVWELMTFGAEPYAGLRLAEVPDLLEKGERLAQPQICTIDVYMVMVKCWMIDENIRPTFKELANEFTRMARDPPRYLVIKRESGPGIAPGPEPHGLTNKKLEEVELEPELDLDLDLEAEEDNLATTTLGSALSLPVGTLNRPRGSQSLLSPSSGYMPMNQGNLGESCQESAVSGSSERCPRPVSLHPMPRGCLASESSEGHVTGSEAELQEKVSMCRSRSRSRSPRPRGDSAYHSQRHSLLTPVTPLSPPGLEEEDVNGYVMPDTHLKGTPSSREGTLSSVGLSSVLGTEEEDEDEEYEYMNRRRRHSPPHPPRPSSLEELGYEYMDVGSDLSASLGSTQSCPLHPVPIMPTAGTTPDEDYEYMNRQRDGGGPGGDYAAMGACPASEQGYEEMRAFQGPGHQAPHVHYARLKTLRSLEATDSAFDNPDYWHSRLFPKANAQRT
Chain of Phosphatidylinositol 4,5-bisphosphate 3-kinase catalytic subunit gamma isoform (Homo sapiens) (P48736 whole entry, looked up, the tested form may be a part, canonical isoform): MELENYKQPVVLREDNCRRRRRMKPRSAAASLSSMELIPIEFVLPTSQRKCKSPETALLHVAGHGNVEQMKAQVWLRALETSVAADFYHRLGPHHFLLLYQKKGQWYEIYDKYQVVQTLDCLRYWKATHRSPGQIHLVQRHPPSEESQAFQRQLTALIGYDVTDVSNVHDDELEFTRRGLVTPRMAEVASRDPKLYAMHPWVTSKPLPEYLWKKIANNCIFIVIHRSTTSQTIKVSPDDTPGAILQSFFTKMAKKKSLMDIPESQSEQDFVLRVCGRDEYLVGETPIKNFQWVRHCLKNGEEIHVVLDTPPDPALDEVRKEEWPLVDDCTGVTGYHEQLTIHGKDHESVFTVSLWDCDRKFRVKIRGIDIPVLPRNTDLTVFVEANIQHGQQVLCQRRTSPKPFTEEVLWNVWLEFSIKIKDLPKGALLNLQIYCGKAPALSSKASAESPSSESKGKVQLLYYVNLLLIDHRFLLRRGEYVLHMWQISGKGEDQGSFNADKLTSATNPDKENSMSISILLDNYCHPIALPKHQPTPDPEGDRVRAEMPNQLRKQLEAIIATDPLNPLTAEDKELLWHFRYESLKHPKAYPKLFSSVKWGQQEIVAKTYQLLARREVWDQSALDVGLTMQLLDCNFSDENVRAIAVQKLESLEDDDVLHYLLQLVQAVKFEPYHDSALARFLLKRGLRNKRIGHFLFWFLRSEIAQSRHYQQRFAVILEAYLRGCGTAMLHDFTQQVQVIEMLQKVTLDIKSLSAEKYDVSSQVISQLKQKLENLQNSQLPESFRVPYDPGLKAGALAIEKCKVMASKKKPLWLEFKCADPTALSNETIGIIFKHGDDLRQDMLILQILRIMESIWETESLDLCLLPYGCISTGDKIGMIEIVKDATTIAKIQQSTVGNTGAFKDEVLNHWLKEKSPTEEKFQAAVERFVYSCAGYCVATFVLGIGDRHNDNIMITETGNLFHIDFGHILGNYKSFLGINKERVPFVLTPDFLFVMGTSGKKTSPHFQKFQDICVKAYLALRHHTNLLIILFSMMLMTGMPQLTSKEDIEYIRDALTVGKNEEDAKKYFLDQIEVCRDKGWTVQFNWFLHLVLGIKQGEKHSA
Chain of Epidermal growth factor receptor (Homo sapiens), P00533 [UNDEFINED MUTATION] (P00533 whole entry, looked up, change not shown): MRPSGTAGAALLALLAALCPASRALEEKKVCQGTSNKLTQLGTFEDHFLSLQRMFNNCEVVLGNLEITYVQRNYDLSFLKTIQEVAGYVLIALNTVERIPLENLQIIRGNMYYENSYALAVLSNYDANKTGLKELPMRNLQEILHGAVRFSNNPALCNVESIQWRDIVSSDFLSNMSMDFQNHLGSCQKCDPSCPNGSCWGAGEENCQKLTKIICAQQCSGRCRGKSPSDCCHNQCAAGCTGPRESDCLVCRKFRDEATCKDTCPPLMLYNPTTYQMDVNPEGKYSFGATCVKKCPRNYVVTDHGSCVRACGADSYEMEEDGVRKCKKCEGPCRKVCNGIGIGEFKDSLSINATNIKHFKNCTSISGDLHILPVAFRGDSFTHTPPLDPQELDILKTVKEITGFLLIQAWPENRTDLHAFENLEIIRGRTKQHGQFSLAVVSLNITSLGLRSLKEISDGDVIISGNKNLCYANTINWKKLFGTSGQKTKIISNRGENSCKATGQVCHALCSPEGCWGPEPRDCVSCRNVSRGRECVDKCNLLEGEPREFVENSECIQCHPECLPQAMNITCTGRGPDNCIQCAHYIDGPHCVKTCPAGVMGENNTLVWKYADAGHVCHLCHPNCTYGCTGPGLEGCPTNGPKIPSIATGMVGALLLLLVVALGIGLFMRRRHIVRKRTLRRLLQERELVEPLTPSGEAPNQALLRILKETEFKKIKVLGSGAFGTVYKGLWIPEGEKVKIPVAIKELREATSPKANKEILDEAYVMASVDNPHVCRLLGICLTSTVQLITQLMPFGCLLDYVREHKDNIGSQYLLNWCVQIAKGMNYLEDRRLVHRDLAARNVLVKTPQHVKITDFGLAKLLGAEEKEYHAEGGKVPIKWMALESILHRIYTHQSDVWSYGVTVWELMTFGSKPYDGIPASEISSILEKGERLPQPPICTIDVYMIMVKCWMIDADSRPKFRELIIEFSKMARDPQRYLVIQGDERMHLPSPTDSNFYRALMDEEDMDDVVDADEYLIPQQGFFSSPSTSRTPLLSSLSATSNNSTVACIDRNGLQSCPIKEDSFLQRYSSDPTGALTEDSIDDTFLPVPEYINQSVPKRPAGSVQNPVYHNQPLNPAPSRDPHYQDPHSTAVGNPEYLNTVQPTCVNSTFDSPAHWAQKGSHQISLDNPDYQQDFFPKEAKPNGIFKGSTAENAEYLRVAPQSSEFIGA
Chain of Testis-specific serine/threonine-protein kinase 1 (Homo sapiens) (Q9BXA7 whole entry): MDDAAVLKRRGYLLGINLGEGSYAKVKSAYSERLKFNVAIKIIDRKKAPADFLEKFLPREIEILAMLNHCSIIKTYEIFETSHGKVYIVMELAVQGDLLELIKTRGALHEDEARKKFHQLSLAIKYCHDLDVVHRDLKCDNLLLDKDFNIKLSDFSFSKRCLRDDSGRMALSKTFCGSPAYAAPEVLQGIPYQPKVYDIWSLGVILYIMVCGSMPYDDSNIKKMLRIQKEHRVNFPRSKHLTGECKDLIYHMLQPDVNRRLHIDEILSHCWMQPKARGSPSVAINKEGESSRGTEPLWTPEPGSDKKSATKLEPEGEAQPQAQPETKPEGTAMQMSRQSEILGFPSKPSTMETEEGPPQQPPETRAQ

Which residual activity [1] does the source give for `CCC(=N\O)/C(C)=C/c1ccc(F)cc1` [A-079] here?
The residual activity was 75%.

And the residual activity [2]?
Its residual activity is 87%.

What about the residual activity [3] of the same compound?
The residual activity was 67%.

And the residual activity [4]?
The residual activity was 100%.

And the residual activity [5]?
Its residual activity is 82%.

What about the residual activity [6] of the same compound?
The residual activity was 83%.

What about the residual activity [7] of the same compound?
The residual activity was 67%.

What about the residual activity [8] of the same compound?
Its residual activity is 86%.

What about the inhibition [9] of the same compound?
The inhibition was 7.88%.

What about the inhibition [10] of the same compound?
Its inhibition is 13.9%.

What about the residual activity [11] of the same compound?
Its residual activity is 100%.

What about the residual activity [12] of the same compound?
Its residual activity is 85%.

And the residual activity [13]?
Its residual activity is 79%.

And the residual activity [14]?
The residual activity was 100%.

What about the residual activity [15] of the same compound?
The residual activity was 78%.

What about the inhibition [16] of the same compound?
Its inhibition is 8.18%.

What about the inhibition [17] of the same compound?
Its inhibition is 22.6%.

And the residual activity [18]?
Its residual activity is 68%.

And the inhibition [19]?
Its inhibition is 13%.

And the residual activity [20]?
Its residual activity is 100%.

And the residual activity [21]?
The residual activity was 82%.

What about the residual activity [22] of the same compound?
Its residual activity is 77%.

And the residual activity [23]?
Its residual activity is 100%.

What about the residual activity [24] of the same compound?
Its residual activity is 69%.

What about the residual activity [25] of the same compound?
The residual activity was 74%.

What about the residual activity [26] of the same compound?
Its residual activity is 100%.

And the residual activity [27]?
The residual activity was 65%.

And the residual activity [28]?
The residual activity was 97%.

What about the residual activity [29] of the same compound?
Its residual activity is 100%.

And the residual activity [30]?
The residual activity was 100%.

And the residual activity [31]?
Its residual activity is 79%.

And the residual activity [32]?
Its residual activity is 100%.

What about the residual activity [33] of the same compound?
The residual activity was 76%.

What about the residual activity [34] of the same compound?
Its residual activity is 100%.

What about the residual activity [35] of the same compound?
Its residual activity is 91%.

What about the residual activity [36] of the same compound?
Its residual activity is 91%.

And the residual activity [37]?
The residual activity was 85%.

What about the residual activity [38] of the same compound?
Its residual activity is 66%.

What about the inhibition [39] of the same compound?
The inhibition was -5.9%.

What about the residual activity [40] of the same compound?
The residual activity was 95%.

What about the residual activity [41] of the same compound?
Its residual activity is 100%.

And the residual activity [42]?
The residual activity was 89%.

And the residual activity [43]?
The residual activity was 82%.

And the residual activity [44]?
The residual activity was 81%.

And the residual activity [45]?
Its residual activity is 74%.

Which results are given for `CCC(=N\O)/C(C)=C/c1ccc(F)c(C)c1` [A-226]?
residual activity [1]: 93%; residual activity [2]: 100%; residual activity [3]: 65%; residual activity [4]: 61%; residual activity [5]: 87%; residual activity [6]: 100%; residual activity [7]: 86%; residual activity [8]: 46%; inhibition [9]: -1.04%; inhibition [10]: 4.54%; residual activity [11]: 100%; residual activity [12]: 100%; residual activity [13]: 100%; residual activity [14]: 100%; residual activity [15]: 100%; inhibition [16]: -0.42%; inhibition [17]: 33.4%; residual activity [18]: 86%; inhibition [19]: 8.28%; residual activity [20]: 100%; residual activity [21]: 90%; residual activity [22]: 90%; residual activity [23]: 76%; residual activity [24]: 94%; residual activity [25]: 97%; residual activity [26]: 100%; residual activity [27]: 100%; residual activity [28]: 100%; residual activity [29]: 97%; residual activity [30]: 93%; residual activity [31]: 100%; residual activity [32]: 92%; residual activity [33]: 97%; residual activity [34]: 100%; residual activity [35]: 100%; residual activity [36]: 100%; residual activity [37]: 100%; residual activity [38]: 100%; inhibition [39]: -1.52%; residual activity [40]: 81%; residual activity [41]: 100%; residual activity [42]: 91%; residual activity [43]: 100%; residual activity [44]: 100%; residual activity [45]: 80%
